Measured values reported in US20150031892A1, “SPHINGOLIPID METABOLITE MIMETICS” (Zhejiang University, priority 2012, published 2015).

B1: TRAIL: TNF-related apoptosis-inducing ligand, a death receptor ligand used as apoptosis-inducing agent (protein, UniProt P50591 1-281, looked up)
Tumor necrosis factor ligand …: MAMMEVQGGPSLGQTCVLIVIFTVLLQSLCVAVTYVYFTNELKQMQDKYSKSGIACFLKEDDSYWDPNDEESMNSPCWQVKWQLRQLVRKMILRTSEETISTVQEKQQNISPLVRERGPQRVAAHITGTRGRSNTLSSPNSKNEKALGRKINSWESSRSGHSFLSNLHLRNGELVIHEKGFYYIYSQTYFRFQEEIKENTKNDKQMVQYIYKYTSYPDPILLMKSARNSCWSKDAEYGLYSIYQGGIFELKENDRIFVSVTNEHLIDMDHEASFFGAFLVG

How the values were obtained:
Type in all cases: cell-based
SA = assay: MTT cytotoxicity assay, SA (pancreatic cancer as headed)
Experimental: (§1) Cell survival after exposure to the sphingolipid metabolite mimetics was examined by MTT cytotoxicity assay. HepG2, A431, HeLa, MCF-7 and SA cells (7000 cells/well) were seeded in each well of a 96-well plate for 24 h. New medium was added to give final concentrations of 0 to 200 μM of the sphingolipid metabolite mimetics. Then, 50 μl of 1 mg/ml 3-(4,5-dimethylthiazol-2-yl)-2,5-diphenyltetrazolium bromide (MTT, Sigma-Aldrich Chemical) was added to each well for 4 h incubation at 37° C. The purple formazan formed was then solubilized by DMSO and absorbance at 570 nm was read by a microplate reader (Molecular Devices, Sunnyvale, Calif.).

MCF-7 = assay: MTT cytotoxicity assay, MCF-7 (breast cancer); settings: Homo sapiens, MCF7; Breast Cancer MCF-7, MTT
Experimental: as §1

[1] = system: cancer cells (TRAIL resistance); assay: Sensitization of cancer cells to TRAIL-induced apoptosis, general statements; settings: summary statement
Experimental: (§2) Cell survival after exposure to the anti-tumor agents was examined by MTT cytotoxicity assay. Cells were seeded in each well of a 96-well plate for 24 h. After incubation with various concentrations of compounds, TRAIL, or both for 48 h, the medium was discarded. Then, 50 μl of 1 mg/ml 3-(4,5-dimethylthiazol-2-yl)-2,5-diphenyltetrazolium bromide (MTT, Sigma-Aldrich Chemical) was added to each well for 4 h incubation at 37° C. The purple formazan formed was then solubilized by DMSO and absorbance at 570 nm was read by a microplate reader (Molecular Devices, Sunnyvale, Calif.).

SW620 = assay: MTT cytotoxicity assay, SW620 (colon cancer); settings: Homo sapiens, SW-620
SW480 = assay: MTT cytotoxicity assay, SW480 (colon cancer); settings: Homo sapiens
A431 = assay: MTT cytotoxicity assay, A431 (squamous carcinoma); settings: Homo sapiens, A-431
Experimental: as §1

[2] = system: multiple types of cancer cells; assay: MTT cytotoxicity, statements over several cancer cell lines; settings: for direct anti-cancer cell activity: summary statement
Experimental: as §1

HELA cells = assay: Drug sensitivity MTT assay with TRAIL, HELA; parameters: scale not given here; settings: for NZJU alone mean value (sensitivity, growth inhibition): drug alone (19-100 μM; TRAIL 100 ng/ml); for NZJU alone mean value (sensitivity, growth inhibition) / combine mean value (sensitivity, growth inhibition): 48 h; for Enhanced mean value: enhancement due to co-administration with TRAIL; for combine mean value (sensitivity, growth inhibition): mimetic at the dose of its row combined with TRAIL 100 ng/ml
Experimental: as §2

SiHa = assay: MTT cytotoxicity assay, SiHa (ovarian cancer as headed); settings: Homo sapiens, Cervical Cancer SiHa
SW620 cells = assay: Drug sensitivity MTT assay with TRAIL, SW620; parameters: scale not given here; settings: for NZJU alone mean value (sensitivity, growth inhibition): drug alone (19-100 μM; TRAIL 100 ng/ml); for NZJU alone mean value (sensitivity, growth inhibition) / combine mean value (sensitivity, growth inhibition): 48 h; for Enhanced mean value: enhancement due to co-administration with TRAIL; for combine mean value (sensitivity, growth inhibition): mimetic at the dose of its row combined with TRAIL 100 ng/ml
Experimental: as §2

MCF-7 cells = assay: Drug sensitivity MTT assay with TRAIL, MCF-7; parameters: scale not given here; settings: for NZJU alone mean value (sensitivity, growth inhibition): drug alone (19-100 μM; TRAIL 100 ng/ml); for NZJU alone mean value (sensitivity, growth inhibition) / combine mean value (sensitivity, growth inhibition): 48 h; for Enhanced mean value: enhancement due to co-administration with TRAIL; for combine mean value (sensitivity, growth inhibition): mimetic at the dose of its row combined with TRAIL 100 ng/ml
Experimental: as §2

HepG2 = assay: MTT cytotoxicity assay, HepG2 (liver cancer); settings: Homo sapiens
Experimental: as §1

Molecule	IC50 (SA) [µM]	IC50 (MCF-7) [µM]	TRAIL sensitization activity [1]	IC50 (SW620) [µM]	IC50 (SW480) [µM]	IC50 (A431) [µM]	direct anti-cancer cell activity [2]	NZJU alone mean value (sensitivity, growth inhibition) (HELA cells)	Enhanced mean value (HELA cells)	combine mean value (sensitivity, growth inhibition) (HELA cells)	IC50 (SiHa) [µM]	NZJU alone mean value (sensitivity, growth inhibition) (SW620 cells)	Enhanced mean value (SW620 cells)	combine mean value (sensitivity, growth inhibition) (SW620 cells)	NZJU alone mean value (sensitivity, growth inhibition) (MCF-7 cells)	Enhanced mean value (MCF-7 cells)	combine mean value (sensitivity, growth inhibition) (MCF-7 cells)	IC50 (HepG2) [µM]	NZJU alone mean value (sensitivity, growth inhibition) (MCF-7 cells; listed as NZJU1g)	IC50 ([2]; all five cell lines tested, read-out: IC50 values) [µM]
CCCCCCCCCCCCNC(=O)[C@@H](NC(=O)c1ccco1)[C@@H](C)O [NZJU13, N-((2S,3R)-3-hydroxy-1-oxo-1-(dodecylamino)butan-2-yl)-Furan-2-carboxamide]	93.5 ± 3.13	67.5 ± 4.88	TRAIL sensitization activity	87.5 ± 7.58	125 ± 16.1	92.4 ± 2.64	direct anti-cancer cell activity	0.146	0.254	0.435	64.3 ± 1.68	0.126	0.321	0.520	0.148	0.321	0.582	147 ± 22.3		
CCCCCCCCNC(=O)[C@@H](NC(=O)c1cccs1)[C@@H](C)O [NZJU44, N-((2S,3R)-3-hydroxy-1-oxo-1-(octylamino)butan-2-yl)-2-thiophene carboxamide]	60.9 ± 4.29	72.5 ± 3.37	TRAIL sensitization activity	136 ± 42.6		32.1 ± 4.6	direct anti-cancer cell activity	0.218	0.357	0.315	91.85 ± 0.59	0.563	0.128	0.853	0.625	0.042	0.717	149 ± 8.7	efficient at killing MCF-7 cells	
CCCCCCCCCCCCNC(=O)[C@@H](NC(=O)c1cccs1)[C@@H](C)O [NZJU33, N-((2S,3R)-3-hydroxy-1-oxo-1-(dodecylamino)butan-2-yl)-2-thiophene carboxamide]	23.3 ± 3.33	30.4 ± 2.8		29.2 ± 0.57	30.2	16.6 ± 2.12	direct anti-cancer cell activity				23.9 ± 3.65							30.1 ± 3.84		
CCCCCCCCCCCCCCNC(=O)[C@@H](NC(=O)c1nccc2ccccc12)[C@@H](C)O [NZJU31, N-((2S,3R)-3-hydroxy-1-oxo-1-(tetradecylamino)butan-2-yl)-isoquinoline-1-carboxamide]	24.4 ± 3.6	22.8 ± 3.94		30.4 ± 2.09	23.6	23 ± 3.72					21.6 ± 2.26							28.6 ± 3.77		< 30
CCCCCCCCNC(=O)[C@@H](NC(=O)c1cc2ccccc2o1)[C@@H](C)O [NZJU45, N-((2S,3R)-3-hydroxy-1-oxo-1-(octylamino)butan-2-yl)-benzofuran-2-carboxamide]	40.8 ± 3.63	47.2 ± 7.3	TRAIL sensitization activity	≥ 200		52.7 ± 3.82	direct anti-cancer cell activity	0.173	0.223	0.432	66.5 ± 2.5	0.205	0.309	0.516	0.021	0.382	0.538	81.3 ± 9.13		
CCCCCCCCCCCCNC(=O)[C@@H](NC(=O)c1ccccc1)[C@@H](C)O [NZJU16, N-((2S,3R)-3-hydroxy-1-oxo-1-(dodecylamino)butan-2-yl)-benzamide]	75.5 ± 6.24	36.6 ± 8.86	TRAIL sensitization activity	≥ 200	67.2 ± 7.42	41.2 ± 0.69	direct anti-cancer cell activity	0.264	0.298	0.597	63.9 ± 6.01	0.376	0.304	0.607	0.479	0.197	0.741	> 400		
C/C=C/C=C/C(=O)N[C@H](C(=O)NCCCCCCCC)[C@@H](C)O [NZJU41, (2E,4E)-N-((2S,3R)-3-hydroxy-1-oxo-1-(octylamino)butan-2-yl)-2,4-hexadienoic acid amide]	40.4 ± 2.16	149 ± 3.24	TRAIL sensitization activity	≥ 200	158	58.24 ± 0.11	direct anti-cancer cell activity	0.362	0.421	0.819	123 ± 2.5	0.551	0.169	0.790	0.347	0.113	0.625	102 ± 4.07		
CCCCCCCCCCCCCCCCCCNC(=O)[C@@H](NC(=O)Cc1c[nH]c2ccccc12)[C@@H](C)O [NZJU29, N-((2S,3R)-3-hydroxy-1-oxo-1-(octadecylamino)butan-2-yl)-indole-3-acetic acid amide]	54.9 ± 3.9	37.3 ± 1.82		103 ± 7.48	60	31.8 ± 1.93	direct anti-cancer cell activity				65.8 ± 6.45							57.6 ± 2.69		
CCCCCCCCCCCCCCNC(=O)[C@@H](NC(=O)c1cccs1)[C@@H](C)O [NZJU34, N-((2S,3R)-3-hydroxy-1-oxo-1-(tetradecylamino)butan-2-yl)-2-thiophene carboxamide]	21.2 ± 3.78	36.07 ± 0.27	TRAIL sensitization activity	78.4 ± 11.1	70.3	26.4 ± 4.03	direct anti-cancer cell activity	0.334	0.375	0.744	63 ± 0.25	0.315	0.275	0.664	0.444	0.263	0.759	88.4 ± 15.5		
CCCCCCCCNC(=O)[C@@H](NC(=O)c1ccccc1)[C@@H](C)O [NZJU39, N-((2S,3R)-3-hydroxy-1-oxo-1-(octylamino)butan-2-yl)-benzamide]	34.6 ± 4.17	111 ± 4.66		≥ 200	> 200	61.3 ± 4.09	direct anti-cancer cell activity				112 ± 2.43							136 ± 5.92		
B1								0.036							0.118					
